According to PubChem BioAssay (NCI):
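96-well plates; 48 h exposure; 5 concentrations. Endpoints by linear interpolation between flanking doses. Not reached: highest tested concentration assigned. The concentration for full growth arrest is given as TGI.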

Assays:
Test in all cases: inhibition of tumour cell growth, NCI panel, 48 h
HL-60(TB) leukemia = system: HL-60(TB) leukemia
HOP-62 NSCLC = system: HOP-62 NSCLC
RPMI-8226 leukemia = system: RPMI-8226 leukemia
MALME-3M melanoma = system: MALME-3M melanoma
HT29 colon = system: HT29 colon
SK-MEL-5 melanoma = system: SK-MEL-5 melanoma
NCI/ADR-RES ovarian = system: NCI/ADR-RES ovarian
EKVX NSCLC = system: EKVX NSCLC
SNB-19 CNS = system: SNB-19 CNS
A498 renal = system: A498 renal
MDA-MB-231 breast = system: MDA-MB-231 breast
U251 CNS = system: U251 CNS
IGROV1 ovarian = system: IGROV1 ovarian
HOP-92 NSCLC = system: HOP-92 NSCLC
SF-295 CNS = system: SF-295 CNS
OVCAR-4 ovarian = system: OVCAR-4 ovarian
OVCAR-5 ovarian = system: OVCAR-5 ovarian
PC-3 prostate = system: PC-3 prostate
SK-MEL-2 melanoma = system: SK-MEL-2 melanoma
MOLT-4 leukemia = system: MOLT-4 leukemia

Structure (SMILES) | TGI (HL-60(TB) leukemia) | TGI (HOP-62 NSCLC) | TGI (RPMI-8226 leukemia) | TGI (MALME-3M melanoma) | TGI (HT29 colon) | TGI (SK-MEL-5 melanoma) | TGI (NCI/ADR-RES ovarian) | TGI (EKVX NSCLC) | TGI (SNB-19 CNS) | TGI (A498 renal) | TGI (MDA-MB-231 breast) | TGI (U251 CNS) | TGI (IGROV1 ovarian) | TGI (HOP-92 NSCLC) | TGI (SF-295 CNS) | TGI (OVCAR-4 ovarian) | TGI (OVCAR-5 ovarian) | TGI (PC-3 prostate) | TGI (SK-MEL-2 melanoma) | TGI (MOLT-4 leukemia)
CC(C)(C)c1cc(C(P(=O)(c2ccccc2)c2ccccc2)P(=O)(c2ccccc2)c2ccccc2)cc(C(C)(C)C)c1O | > 8.2 µM | 5.13 µM | > 7.73 µM | 6.38 µM | 4.39 µM | 2.94 µM | 6.16 µM | > 10 µM | > 10 µM | 5.08 µM | 5.12 µM | 6.68 µM | 5.74 µM | 5.65 µM | 3.85 µM | > 10 µM | > 6.72 µM | 7.67 µM | 3.88 µM | > 8.09 µM
NC(N)=NCCN=C(N)N | > 100 µM | > 100 µM | > 100 µM | > 100 µM | > 100 µM | > 100 µM | > 100 µM | > 100 µM | > 100 µM | > 100 µM | > 100 µM | > 100 µM | > 100 µM | > 100 µM | > 100 µM | > 100 µM | > 100 µM | > 100 µM | > 100 µM | > 100 µM
COCCOCc1nc(C#N)c(N)o1 | > 100 µM | > 100 µM | > 100 µM | > 100 µM | > 100 µM | > 100 µM | > 100 µM | > 100 µM | > 100 µM | > 100 µM | > 100 µM | > 100 µM | > 100 µM | > 100 µM | > 100 µM | > 100 µM | > 100 µM | > 100 µM | > 100 µM | > 100 µM
CCc1nc(N)nc(N)c1-c1ccc2nn(-c3ccccc3)[n+]([O-])c2c1 | 27.4 µM | 25.3 µM | 35.7 µM | 22.7 µM | 20.2 µM | 19.6 µM | 38.8 µM | 35.1 µM | > 70.4 µM | 29.2 µM | 25.5 µM | 22.1 µM | 23.2 µM | 27 µM | 63.5 µM | 56.6 µM | 44.3 µM | 23.4 µM | 28.7 µM | 32.5 µM
O=[N+]([O-])c1ccc(Cl)c(C=NC23CC4CC(CC(C4)C2)C3)c1 | 4.46 µM | > 10 µM | > 10 µM | > 10 µM | > 10 µM | > 10 µM | > 10 µM | > 10 µM | > 10 µM | > 10 µM | > 10 µM | > 10 µM | > 10 µM | > 10 µM | > 10 µM | > 10 µM | > 10 µM | > 10 µM | > 10 µM | > 10 µM
CS(=O)(=O)Nc1ccc(N2Cc3cnc4ccc5[nH]ccc2c5c34)cc1 | 64.4 µM | 59.2 µM | 48.1 µM | 19.1 µM | 95.7 µM | 29 µM | > 100 µM | > 100 µM | 42 µM | 49.4 µM | 37.5 µM | 36.5 µM | 79.9 µM | 63.6 µM | > 100 µM | 46.6 µM | 84.5 µM | 42 µM | 31.7 µM | 8.94 µM
CCC(C)(C)/C(CC(O)(C(F)(F)F)C(F)(F)F)=N\O | > 100 µM | > 100 µM | > 100 µM | > 100 µM | > 100 µM | > 100 µM | > 100 µM | > 100 µM | > 100 µM | > 100 µM | > 100 µM | > 100 µM | > 100 µM | > 100 µM | > 100 µM | > 100 µM | > 100 µM | > 100 µM | > 100 µM | > 100 µM
O=S(=O)(c1ccccc1)n1c2cc3cccnc3nc2c2cccnc21 | 48.1 µM | > 100 µM | 56.6 µM | > 100 µM | > 100 µM | > 100 µM | > 100 µM | > 100 µM | > 100 µM | > 100 µM | > 100 µM | > 100 µM | > 100 µM | > 100 µM | > 100 µM | > 100 µM | > 100 µM | > 100 µM | > 100 µM | > 100 µM
C[C@]12CC[C@H](O)CC1=CC[C@@H]1[C@@H]2CC[C@]2(C)C(=O)[C@@H](N3CCOCC3)C[C@@H]12 | > 100 µM | > 100 µM | > 100 µM | > 100 µM | > 100 µM | > 100 µM | > 100 µM | > 100 µM | > 100 µM | > 100 µM | > 100 µM | > 100 µM | > 100 µM | > 100 µM | > 100 µM | > 100 µM | > 100 µM | > 100 µM | > 100 µM | > 100 µM
O=[N+]([O-])c1cc2oc(COc3ccccc3)nc2cc1Cl | > 100 µM | 50.6 µM | > 100 µM | 94.5 µM | > 100 µM | 25.5 µM | 61.2 µM | 73.6 µM | > 100 µM | 53 µM | 69.4 µM | 52.5 µM | > 100 µM | > 100 µM | 38.8 µM | > 100 µM | > 100 µM | > 100 µM | 44.2 µM | > 100 µM
CC(=O)c1c2c(cc3c1CC1(Cc4ccccc4C1=O)C3)CCC2 (stereo not given) | 33.7 µM | > 100 µM | 39.1 µM | 51.5 µM | > 100 µM | 23 µM | 53.3 µM | 63.9 µM | > 100 µM | > 100 µM | 93.4 µM | > 100 µM | > 100 µM | 49.5 µM | > 100 µM | > 100 µM | > 100 µM | > 100 µM | 92 µM | 29.1 µM
